PubChem BioAssay (NCI)
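Interpolation was linear, between the two tested concentrations surrounding the appropriate level; five concentrations were tested over 48 hours in 96-well plates. The concentration for full growth arrest is given as TGI.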

Experiments:
Assay in all cases: DTP human tumour cell line panel, 48 h
[1] = test system: NCI/ADR-RES ovarian
[2] = test system: TK-10 renal
[3] = test system: NCI-H460 lung
[4] = test system: SNB-19 CNS
[5] = test system: HCC-2998 colon
[6] = test system: IGROV1 ovarian
[7] = test system: MCF7 breast
[8] = test system: HOP-62 NSCLC
[9] = test system: SF-539 CNS
[10] = test system: T-47D breast
[11] = test system: HCT-116 colon
[12] = test system: DU-145 prostate
[13] = test system: NCI-H23 lung
[14] = test system: CCRF-CEM leukemia
[15] = test system: MDA-N

SMILES	TGI [1] [µM]	TGI [2] [µM]	TGI [3] [µM]	TGI [4] [µM]	TGI [5] [µM]	TGI [6] [µM]	TGI [7] [µM]	TGI [8] [µM]	TGI [9] [µM]	TGI [10] [µM]	TGI [11] [µM]	TGI [12] [µM]	TGI [13] [µM]	TGI [14] [µM]	TGI [15] [µM]
Cc1ccc2c(=O)cc(-c3ccc(C)s3)[nH]c2n1	0.676	> 100	> 100	> 100	9.82	> 50.4	> 100	> 100	0.972	> 66.5	> 100	> 55.4	–	–	–
CC(=O)O[C@H]1C(=O)[C@@]2(C)[C@H]([C@H](OC(=O)c3ccccc3)[C@]3(O)C[C@H](OC(=O)[C@H](O)[C@@H](NC(=O)c4ccco4)c4ccccc4)C(C)=C1C3(C)C)[C@]1(OC(C)=O)CO[C@@H]1C[C@@H]2O	> 7.75	> 12.5	> 12.5	> 12.5	–	> 12.5	> 12.5	> 12.5	0.00454	> 12.5	> 12.5	> 12.5	> 12.5	0.0073	–
CCOC(=O)c1nc2ccc(C(F)(F)F)cc2nc1NCc1ccc(OC)c(OC)c1	> 100	> 100	> 100	> 100	–	> 100	> 100	> 100	> 100	> 100	> 100	–	> 100	> 100	> 100
CC1=CC[C@@]2(C)CC[C@](O)(C(C)C)C2C(OC(=O)c2ccccc2)C1 (stereo partly specified)	41.5	35.3	40.6	40.5	25	30.6	34.4	33.7	37.4	42.6	31.8	32.5	38.9	54.7	–
N[C@@H]1CCN(c2c(F)cc3c(=O)c(C(=O)O)cn4c3c2Oc2cc3c(ccc5ccccc53)cc2-4)C1	> 100	–	7.01	> 100	–	> 100	> 100	> 100	28.5	31.3	18.5	> 100	> 100	0.234	> 100
CSCSCC(CO)NC(=O)/C(C)=C\c1c(C)[nH]c(=O)[nH]c1=O (stereo unspecified)	> 250	–	> 250	> 250	> 250	> 250	> 250	> 250	> 250	–	> 250	–	> 250	> 250	–
COc1cccc(C2c3cc4c(cc3OC(NNS(=O)(=O)c3ccc(C)cc3)C2C)OCO4)c1OC (stereo unspecified)	–	49.8	8.64	86.6	> 100	15.3	79.5	9.06	11.9	> 100	4.56	7.61	> 100	5.31	> 100
Clc1ccc(CCN[C@H]2CCCC[C@H]2N2CCCC2)cc1Cl	> 100	22.9	58.4	69.5	22.3	35.1	35.7	48.2	75.3	–	> 100	59.8	58.8	> 100	38.5
COc1ccc(-c2c3c(n(C4OC(CO)C(O)C(O)C4O)c(=S)c2C#N)CCCC3)cc1 (stereo unspecified)	> 100	> 100	> 100	–	> 100	> 100	> 100	> 100	> 100	> 100	> 100	–	> 100	> 100	> 100
CN(CCCNC(=O)c1cn(C)c2c1Cc1ccccc1-2)CCCNC(=O)c1cn(C)c2c1Cc1ccccc1-2	28	25.1	23.8	24.1	–	21.8	25.4	29.2	31.8	–	22.2	–	29.5	17.2	12.3
COc1nc(N)c(NC(C)=O)c(=O)n1C	–	> 100	> 100	> 100	> 100	> 100	–	–	> 100	–	> 100	–	> 100	> 100	–
Fc1ccc2c3c([nH]c2c1)CCN(Cc1ccccc1)C3	71	–	33.1	30.8	26	42.5	31.3	28.5	39	47.3	32.9	70.9	42.4	> 100	–
CC1CCC2CC(=O)OC([C@@H]3C(=O)O[C@@H](C4=CCCC4)C4C(C)CCC43)C12 (stereo partly specified)	–	> 100	> 100	> 100	> 100	> 100	–	> 100	> 100	–	> 100	–	> 100	> 100	–
